In brackets after ≈: the same amount, converted by molar mass. Several values for one entry are separate records, joined by “and”; a condition that tells them apart may be missing. Identical values can stand only once.

One may read the MIC as the least concentration at which growth counts as inhibited.

One data set deals with Botrytis cinerea. The data set is described as follows: Synergistic Growth Inhibition Assay (MIC / FIC index, resazurin) against Botrytis cinerea. It counts as cell-based. The procedure:
(§1) In some embodiments, the synergistic action between the pesticidal active ingredient, and the C6-C10 unsaturated aliphatic acid components of the pesticidal compositions according to embodiments of the present disclosure was tested using a Synergistic Growth Inhibition Assay, which is derived from and related to a checkerboard assay as is known in the art for testing of combinations of antimicrobial agents. In the Synergistic Growth Inhibition Assay used in accordance with some embodiments of the present disclosure, multiple dilutions of combinations of pesticidal active ingredient and C6-C10 (or alternatively C11 or C12) unsaturated aliphatic acid agents are tested in individual cells for inhibitory activity against a target pest or pathogenic organism. In one such embodiment, the combinations of pesticidal active ingredient and C6-C10 unsaturated aliphatic acid agents may preferably be tested in decreasing concentrations. In a further such embodiment, the combinations of pesticidal active ingredient and C6-C10 (or alternatively C11 or C12) unsaturated aliphatic acid agents may be tested in increasing concentrations. These multiple combinations of the pesticidal active ingredient and C6-C10 (or alternatively C11 or C12) unsaturated aliphatic acid agents may be prepared in 96-well microtiter plates. In one such embodiment, the Synergistic Growth Inhibition Assay then comprises rows which each contain progressively decreasing concentrations of the pesticidal active ingredient and C6-C10 (or alternatively C11 or C12) unsaturated aliphatic acid agents to test for the MIC of the agents in combination at which growth of the target pest or pathogen is inhibited. Thus, each well of the microtiter plate is a unique combination of the two agents, at which inhibitory efficacy of the combination against the target pest or pathogen can be determined.
In one embodiment according to the present disclosure, for each row of microtiter cells in the Synergistic Growth Inhibition Assay, the FIC index is calculated from the lowest concentration of the pesticidal active ingredient and C6-C10 unsaturated aliphatic acid agents necessary to inhibit growth of a target pest or pathogen. The FIC of each component is derived by dividing the concentration of the agent present in that well of the microtiter plate by the minimal inhibitory concentration (MIC) needed of that agent alone to inhibit growth of the target pest or pathogen. The FIC index is then the sum of these values for both agents in that well of the microtiter plate. […] Fractional inhibitory concentration indices may then used as measure of synergy. […] When the FIC index is equal to 1, the combination is additive. […]

A further data set concerns Fusarium oxysporum. The data set is described as follows: Synergistic Growth Inhibition Assay (MIC / FIC index, resazurin) against Fusarium oxysporum. It counts as cell-based. Conditions: for MIC (B): Compound B (unsaturated aliphatic acid) alone, Fusarium oxysporum. The protocol: as §1
(§2) In one embodiment according to the present disclosure, for each row of microtiter cells in the Synergistic Growth Inhibition Assay, the FIC index is calculated from the lowest concentration of the pesticidal active ingredient and C6-C10 unsaturated aliphatic acid agents necessary to inhibit growth of a target pest or pathogen. The FIC of each component is derived by dividing the concentration of the agent present in that well of the microtiter plate by the minimal inhibitory concentration (MIC) needed of that agent alone to inhibit growth of the target pest or pathogen. The FIC index is then the sum of these values for both agents in that well of the microtiter plate. […] Fractional inhibitory concentration indices may then used as measure of synergy. […] When the FIC index is equal to 1, the combination is additive.
(§3) In some embodiments of the present disclosure, the exemplary Synergistic Growth Inhibition Assay was conducted starting with an initial composition comprising a pesticidal active ingredient agent at its individual MIC and a C6-C10 (or alternatively C11 or C12) unsaturated aliphatic acid agent at its individual MIC in the first well of a row on a 96 well microtiter plate. Then, serial dilutions of these initial compositions in successive wells in the row of the microtiter plate were used to assay the pesticidal composition under the same conditions to determine the concentration of the composition combining the two agents corresponding to the microtiter well in which growth inhibition of the target pest or organism ceases.
In some embodiments, Fusarium oxysporum was used as a representative pest organism or pathogen to determine synergy in pesticidal compositions comprising a pesticidal active ingredient agent and a C6-C10 (or alternatively C11 or C12) unsaturated aliphatic acid agent. Resazurin dye (also known as Alamar blue dye) was used as an indicator to determine the presence of growth or inhibition of growth of Fusarium oxysporum in the wells of the 96 well microtiter plates used in the exemplary Synergistic Growth Inhibition Assay.

Another data set has as its system Sclerotinia sclerotiorum. The data set is described as follows: Synergistic Growth Inhibition Assay (MIC / FIC index) against Sclerotinia sclerotiorum. The class given is cell-based. Conditions: for MIC (B): individual compound alone, incubation 7 days. The procedure: as §1, §2, §3
A culture of the representative fungal pathogen, namely Fusarium oxysporum or Botrytis cinerea, for example, is grown to exponential phase in potato dextrose broth (PDB).

The nature of data set [1]: Solubility / effective solubilized concentration in 10% DMSO/90% PDB by HPLC. The protocol:
This solution was diluted 10-fold in potato dextrose broth (PDB) to give a concentration of 0.05 mg/mL in 10% DMSO/90% PDB.
This solution was diluted 10-fold in potato dextrose broth (PDB) to give a concentration of 0.1 mg/mL in 10% DMSO/90% PDB.

Data set [2] relates to Trichoplusia ni. Description: In-vitro insecticidal efficacy on treated modified McMorran artificial diet (Colby synergy). The class given is in vivo, Trichoplusia ni (cabbage looper). The settings on record: Pylon […]. The protocol:
A stock solution was prepared for each of trans-2-hexenoic acid and trans-3-hexenoic acid (both available from Sigma-Aldrich, St. Louis, MO, USA), by dissolving each exemplary unsaturated aliphatic acid in 100% dimethylsulfoxide (DMSO) at a concentration of 20 mg/mL (20,000 ppm). A stock solution for the potassium salt of (2E,4E)-2,4-hexadienoic acid was prepared by dissolving the salt in water to form a 20 mg/mL (20,000 ppm) solution.
An artificial diet suitable for Trichoplusia ni (cabbage looper caterpillar) was prepared according to the modified McMorran artificial diet recipe known in the entomology field (containing agar, casein, potassium hydroxide, alphacel, Wesson's salt mix, sugar, toasted wheat germ, choline chloride, ascorbic acid, methyl paraben, aureomycin, linseed oil and vitamin solution).
The treated artificial diet was then used to fill each well of a 24-well treatment plate with approximately 0.5 mL of artificial diet, which was allowed to solidify at room temperature and stored overnight at approximately 4 C. […] Each experiment contained 3 replicates, and was repeated at least 3 times.
(§4) While for SF<1, antagonism is present and for SF=1, the efficacy of the compounds is merely additive.

Data set [3] has as its system Trichoplusia ni. The data set is described as follows: In-planta insecticidal efficacy on sprayed green cabbage plants (Colby synergy). The class given is in vivo, Trichoplusia ni (cabbage looper). The settings on record: […] Pylon, 0.06 mg/mL acid (salt). The procedure: A stock solution for the potassium salt of (2E,4E)-2,4-hexadienoic acid was prepared by dissolving the salt in water to form a 20 mg/mL (20,000 ppm) solution.
Each experiment was repeated at least 3 times.
as §4

The mark [4] stands for this setting: individual compound alone, incubation 48 hours.

`CCCCCCC=CCC(=O)O` [3-Decenoic acid, 3-decenoic acid]: the “MIC (B)” value with Botrytis cinerea (setting [4]) is 39.06 µg/mL and 78.12 µg/mL; in the data set on Sclerotinia sclerotiorum, 39.06 µg/mL and 78.12 µg/mL. Besides, the “MIC of individual compound alone (MIC (A) or MIC (B))” value (from here on “MIC of individual compound alone”) with Fusarium oxysporum (24 hour incubation) was 73.36 µg/mL; in the data set on Fusarium oxysporum (48 hours incubation), 312.5 µg/mL and 78.12 µg/mL.
In the case of `CCCC=CCC(=O)O` [3-Heptenoic acid, 3-heptenoic acid], in the data set with Fusarium oxysporum (48 hours incubation), the “MIC of individual compound alone” value is 156.2 µg/mL. Besides, in the data set on Sclerotinia sclerotiorum, the “MIC (B)” value came out at 78.12 µg/mL.
Regarding `CCCCCC=CCC(=O)O` [3-Nonenoic acid, 3-nonenoic acid], the “MIC (B)” value with Sclerotinia sclerotiorum was 39.06 µg/mL and 78.12 µg/mL and 156.2 µg/mL.
Consider `CCCCC=CCC(=O)O` [3-Octenoic acid, 3-octenoic acid], for which the “MIC of individual compound alone” value in the data set on Botrytis cinerea (compound alone, 24 hour incubation) turned out to be 146.6 µg/mL.
With `CC=CCCC(=O)O` [4-Hexenoic acid, 4-hexenoic acid], in the data set with Sclerotinia sclerotiorum (Sclerotinia sclerotiorum, […], Compound B (unsaturated aliphatic acid) alone, 7 days incubation), the MIC amounted to 156 µg/mL.
As for `C=CCCCC(=O)O` [5-Hexenoic acid, 5-hexenoic acid], the “MIC (B)” value in the data set on Fusarium oxysporum (48 hours incubation) and in the data set with Sclerotinia sclerotiorum was 156.2 µg/mL throughout.
With `C=CCCCCCC(=O)O` [7-Octenoic acid, 7-octenoic acid], the “MIC (B)” value in the data set on Fusarium oxysporum (48 hours incubation) was found to be 312.5 µg/mL.
With `C=CCCCCCCCC(=O)O` [9-Decenoic acid, 9-decenoic acid], the “MIC (B)” value in the data set with Botrytis cinerea (setting [4]) was 78.12 µg/mL; with Sclerotinia sclerotiorum, 39.06 µg/mL and 78.12 µg/mL. The “MIC of individual compound alone” value with Fusarium oxysporum (24 hour incubation) came to 71.72 µg/mL; in the data set on Fusarium oxysporum (48 hours incubation), 312.5 µg/mL.
Consider `C/C=C/C=C/C(=O)[O-].[K+]` [(2E,4E)-2,4-hexadienoic acid, potassium salt], for which the “MIC of individual compound alone” value in the data set with Fusarium oxysporum (24 hour incubation) was found to be 625 µg/mL.
For the compound `C/C=C/C=C/C(=O)O` [(2E,4E)-2,4-hexadienoic acid], the “MIC of individual compound alone” value in the data set with Fusarium oxysporum (24 hour incubation) worked out at 125 µg/mL.
Turning to `CO/C=C(/C(=O)OC)c1ccccc1Oc1cc(Oc2ccccc2C#N)ncn1` [Azoxystrobin, reference compound], the “MIC of individual compound alone” value came to 150 µg/mL with Fusarium oxysporum (48 hours incubation) and 150 µg/mL in the data set with Sclerotinia sclerotiorum (compound alone, 7 days incubation).
On to `N#Cc1c[nH]cc1-c1cccc2c1OC(F)(F)O2` [Fludioxonil, fludioxonil, reference compound], for which the “MIC of individual compound alone” value in the data set on Fusarium oxysporum (24 hour incubation) is 0.24063 µg/mL.
For `COC(=O)N(OC)c1ccccc1COc1ccn(-c2ccc(Cl)cc2)n1` [Pyraclostrobin, pyraclostrobin], the “solubility in 10% DMSO/90% PDB” value in data set [1] was determined as 15.4 µg/mL (≈ 39.7 µM).
For the compound `C/C=C(/C)C(=O)O[C@H]1C[C@@H](OC(C)=O)[C@@]2(C)CO[C@H]3[C@H]4O[C@@H]5C[C@@H](c6ccoc6)C(C)=C5[C@@]4(C)[C@H](CC(=O)OC)[C@]1(C)[C@@H]32` [Salannin], in the data set on Botrytis cinerea (Botrytis cinerea, 48 h, individual compound alone, incubation 48 hours), the MIC came out at 50 µg/mL.
For the compound `CCCCCCC/C=C/C(=O)O` [Trans-2-decenoic acid, trans-2-decenoic acid], the “MIC (B)” value in the data set with Fusarium oxysporum (48 hours incubation) is 156.2 µg/mL; in the data set on Fusarium oxysporum (48 hours incubation, listed as Trans-2-Decenoic acid), 78.12 µg/mL. Further, in the data set on Fusarium oxysporum (24 hour incubation), the “MIC of individual compound alone” value was determined as 36.25 µg/mL.
Turning to `CCC/C=C/C(=O)O` [Trans-2-hexenoic acid, trans-2-hexenoic acid], the “MIC of individual compound alone” value in the data set with Fusarium oxysporum (24 hour incubation) worked out at 312.5 µg/mL. For the same compound, in the data set on Trichoplusia ni [2] (0.05 mg/mL acid (salt)), the “72 hr Obs. Efficacy” value came out at 0%, the “90 hr Obs. Efficacy” value turned out to be 0% and the “120 hr Obs. Efficacy” value was 0%. For the same compound, in the data set on Trichoplusia ni [2] (0.30 mg/mL acid (salt)), the “72 hr Obs. Efficacy” value was 0%, the “90 hr Obs. Efficacy” value was 0% and the “120 hr Obs. Efficacy” value is 0%. Moreover, the “Observed Efficacy (%)” value in the data set with Trichoplusia ni [3] (after 48 hours) was 0%. Also, the “Observed Efficacy (%)” value with Trichoplusia ni [3] (after 72 hours) is recorded as 0%. Also, the “MIC (B)” value in the data set on Sclerotinia sclerotiorum amounted to 78.12 µg/mL.
For the compound `CCCCC/C=C/C(=O)O` [Trans-2-octenoic acid, trans-2-octenoic acid], the “MIC (B)” value in the data set with Fusarium oxysporum (48 hours incubation) worked out at 156.2 µg/mL.
For `CCCCCCCC/C=C/C(=O)O` [Trans-2-undecenoic acid, trans-2-undecenoic acid], in the data set with Sclerotinia sclerotiorum, the “MIC (B)” value was found to be 78.12 µg/mL.
For `CC/C=C/CC(=O)O` [Trans-3-hexenoic acid, trans-3-hexenoic acid], in the data set on Fusarium oxysporum (48 hours incubation), the “MIC (B)” value turned out to be 156.2 µg/mL and the “MIC of individual compound alone” value amounted to 312.5 µg/mL. In addition, in the data set with Fusarium oxysporum (24 hour incubation), the “MIC of individual compound alone” value came to 312.5 µg/mL. In the data set on Trichoplusia ni [2] (0.05 mg/mL acid (salt)), the “72 hr Obs. Efficacy” value was found to be 0%, the “90 hr Obs. Efficacy” value was 0% and the “120 hr Obs. Efficacy” value was determined as 0%. Further, in the data set with Trichoplusia ni [2] (0.30 mg/mL acid (salt)), the “72 hr Obs. Efficacy” value is 4%, the “90 hr Obs. Efficacy” value is on record as 4% and the “120 hr Obs. Efficacy” value is on record as 0%. Further, the “MIC (B)” value with Sclerotinia sclerotiorum was 156.2 µg/mL.
For the compound `CCCC/C=C/CC(=O)O` [Trans-3-octenoic acid, trans-3-octenoic acid], the “MIC of individual compound alone” value in the data set on Fusarium oxysporum (48 hours incubation) came to 156.2 µg/mL.

The values above are taken from patent publication US12501898B2, “Synergistic pesticidal compositions and methods for delivery of active ingredients” (0903608 B.C. Ltd., priority 2017, dated 2025).
